Experiments:
[1] = system: rats with bladder hypertrophy; assay: Inhibitory activity on detrusor instability (cystometry test after partial urethral obstruction); type: in vivo, rat; details: average ± standard error
Method: The experiment was carried out according to the method of Malmgren, et al. [J. Urol., Vol. 142, pp. 1134-1138 (1989)].
(§1) Female SD rats of 8 to 10 weeks of age (supplied by Japan SLC) were used in the test. Five to seven animals of these rats were put in each metal cage and reared by allowing them to freely take commercially available chow and water, in an animal room at room temperature between 19 and 25° C. and humidity between 30 and 70% under illumination for 12 hours (7:00 a.m.-7:00 p.m.) per day.
The rats were subjected to operation of partial urethral obstruction. Each animal was anesthetized by intraperitoneal administration of 50 mg/kg pentobarbital sodium (Dainippon Pharmaceutical Co., Ltd.), and the midline incision of the skin and muscle was made in the lower abdomen. A polyethylene tube (PE-20, Nippon Becton Dickinson Co., Ltd.) was inserted into urethra from the urethral to the bladder neck. After the proximal urethra was peeled and double-ligated, the polyethylene tube was pulled out to cause partial urethral obstruction. The incised part was-sutured with a surgical silk thread. An antibiotic (ampicillin, Sigma Chemical Co.) was intramusclarly administered to the animals at a dose of 150 mg/kg.
(§2) Six weeks after the operation of the partial urethral obstruction, the rats with bladder hypertrophy were subjected to bladder catheterization. Under anesthesia with pentobarbital sodium, the bladder was exposed by midline incision of the abdomen. […] The bladder catheter was fixed with a surgical silk ligature and indwelled. The other end of the catheter was exposed subcutaneously from the back of the neck, plugged and then fixed to the skin with a surgical thread.
Four to six days after the bladder catheterization, a cystometry test was performed. The rats were put in a Bollman cage (Natsume Seisakusho Co., Ltd.) and a three-way cock was connected to the bladder catheter, one end of the cock was connected to a pressure transducer (Nihon Kohden Corp.) and the other end was connected to a 50-mL syringe (Terumo Corp.) arranged to an infusion pump (Harvard Apparatus, Inc.) for physiological saline infusion. The intravesical pressure signal from the pressure transducer was amplified with a strain pressure amplifier (AP-601G, Nihon Kohden Corp.) connected thereto, and was recorded on a thermal array recorder (RTA-1200, Nihon Kohden Corp.) via a polygraph system (RMP-6008, Nihon Kohden Corp.) containing the above amplifier. Sixty to ninety minutes after the completion of the preparation for the measurement, intravesical infusion of a room temperature physiological saline at a flow rate of 10 mL/h was started and continued until the completion of the test, and the occurrence of micturition contractions and pre-micturition contractions were confirmed. The chart for 30 minutes after 3 hours from the commencement of the saline infusion was used as the values before the drug administration. Each of Compounds 1 to 3 was suspended in a 0.5 w/v % aqueous solution of methylcellulose at a concentration of 1 mg/mL. The suspension was further diluted with a 0.5 w/v % aqueous solution of methylcellulose to prepare a suspension or solution for the administration at the intended concentration. This was then orally administered to the animals at a volume of 1 mL/kg. The period of 1, 3 and 5 hours after the dosing was used as the measuring time after the administration of the solvent or a compound tested, and a duration of 15 minutes around each measuring time (45 to 75 minutes, 165 to 195 minutes and 285 to 315 minutes after the administration of the compound) was used as the measuring period.
Micturition contraction was used as an index of the voiding function and pre-micturition contraction was measure as an index of detrusor instability. […]

spinal cord-injured rats = assay: Inhibitory activity on detrusor hyperreflexia (cystometry test); type: in vivo, rat; details: average ± standard error
Method: The experiment was carried out according to the method of Cheng, et al. [Brain Res., Vol. 678, pp. 40-48 (1995)].
as §1, with “(from 7:00 a.m. to 7:00” for “(7:00 a.m.-7:00”
An operation of spinal cord injury was performed in the rats. Each animal was anesthetized with diethyl ether and the skin of the back side thoracic cord part was incised. A laminectomy at the 7th to 8th thoracic vertebrae level was performed. Then, the thoracic cord at the T7-T8 segments was macroscopically cut and a section of spinal cord (about 5 mm) was removed, and the wound cavity of the removed part was filled with oxidized regenerated cellulose for hemostasis. The incised part was sutured with a surgical silk. After the spinal cord injury operation, urine was expressed manually twice per day (at 8:00-9:00 and 18:00-19:00) for about 3 weeks until autonomic micturition developed. An antibiotic (ampicillin, Sigma. Chemical Co.) was intramuscularly administered to the animals at a dose of 150 mg/kg once to twice per day for about 2 weeks.
as §2, with “Four to five” for “Six”, “spinal cord injury,” for “operation of the partial urethral obstruction,”, “rats” for “rats with bladder hypertrophy”, “diethyl ether anesthesia,” for “anesthesia with pentobarbital sodium,”
Four to six days after the bladder catheterization, a cystometry test was performed. The rats were put in a Bollman cage (Natsume Seisakusho Co., Ltd.) and a three-way cock was connected to the bladder catheter, one end of the cock was connected to a pressure transducer (Nihon Kohden Corp.) and the other end was connected to a 50-mL syringe (Terumo Corp.) arranged to an infusion pump (Harvard Apparatus, Inc.) for physiological saline infusion. The intravesical pressure signal from the pressure transducer was amplified with a strain pressure amplifier (AP-601G, Nihon Kohden Corp.) connected thereto, and was recorded on a thermal array recorder (RTA-1200, Nihon Kohden Corp.) via a polygraph system (RMP-6008, Nihon Kohden Corp.) containing the above amplifier. Sixty to ninety minutes after the completion of the preparation for the measurement, a room temperature physiological saline was infused into the bladder at a flow rate of 10 mL/h for 30 minutes, the occurence of micturition contractions was confirmed. Thirty minutes later, the infusion of physiological saline was carried out again for 30 minutes, and the intravesical pressure was measured to be used as the pre-administration value. Each of Compounds 1 to 6 was suspended in a 0.5 w/v % aqueous solution of methylcellulose at a concentration of 1 mg/mL suspension. The suspension was further diluted with a 0.5 w/v % aqueous solution of methylcellulose to prepare a suspension or solution for the administration at the intended concentration, which was then orally administered to the animals at a volume of 1 mL/kg. The period of 1, 3 and 5 hours after the dosing was used as the measuring time after the administration of the solvent or a compound tested, and the intravesical infusion of a physiological saline was carried out during a duration of 15 minutes around each measuring time (i.e. from 45 to 75 minutes, from 165 to 195 minutes and from 285 to 315 minutes after the administration of the compound).
Micturition contraction was measured as an index of the voiding function and pre-micturition contraction was measured as an index of detrusor hyperreflexia. […]

| Compound | micturition contractions (relative value, before administration = 100) (spinal cord-injured rats; 1 mg/kg p.o., after 1 hr.) [%] | pre-micturition contractions (relative value, before administration = 100) (spinal cord-injured rats; 1 mg/kg p.o., after 1 hr.) [%] | micturition contractions (relative value, before administration = 100) (spinal cord-injured rats; 1 mg/kg p.o., after 3 hrs.) [%] | pre-micturition contractions (relative value, before administration = 100) (spinal cord-injured rats; 1 mg/kg p.o., after 3 hrs.) [%] | micturition contractions (relative value, before administration = 100) (spinal cord-injured rats; 1 mg/kg p.o., after 5 hrs.) [%] | pre-micturition contractions (relative value, before administration = 100) (spinal cord-injured rats; 1 mg/kg p.o., after 5 hrs.) [%] | also measured |
| --- | --- | --- | --- | --- | --- | --- | --- |
| COc1ccc2c(c1)CS(=O)(=O)c1cccc(NC(=O)C(C)(O)C(F)(F)F)c1C2=O (stereo not drawn) [Compound 2] |  |  |  |  |  |  | micturition contractions (relative value, before administration = 100) ([1]; 3 mg/kg p.o., after 1 hr.): 104.5 ± 2.0%; pre-micturition contractions (relative value, before administration = 100) ([1]; 3 mg/kg p.o., after 1 hr.): 67.5 ± 7.9%; micturition contractions (relative value, before administration = 100) ([1]; 3 mg/kg p.o., after 3 hrs.): 101.9 ± 5.9%; pre-micturition contractions (relative value, before administration = 100) ([1]; 3 mg/kg p.o., after 3 hrs.): 66.9 ± 8.5%; micturition contractions (relative value, before administration = 100) ([1]; 3 mg/kg p.o., after 5 hrs.): 100.9 ± 5.5%; pre-micturition contractions (relative value, before administration = 100) ([1]; 3 mg/kg p.o., after 5 hrs.): 74.7 ± 7.6%; micturition contractions (relative value, before administration = 100) (spinal cord-injured rats; 3 mg/kg p.o., after 1 hr.): 94.9 ± 14.3%; pre-micturition contractions (relative value, before administration = 100) (spinal cord-injured rats; 3 mg/kg p.o., after 1 hr.): 55.1 ± 7.3%; micturition contractions (relative value, before administration = 100) (spinal cord-injured rats; 3 mg/kg p.o., after 3 hrs.): 93.6 ± 16.7%; pre-micturition contractions (relative value, before administration = 100) (spinal cord-injured rats; 3 mg/kg p.o., after 3 hrs.): 80.2 ± 23.6%; micturition contractions (relative value, before administration = 100) (spinal cord-injured rats; 3 mg/kg p.o., after 5 hrs.): 99.4 ± 9.0%; pre-micturition contractions (relative value, before administration = 100) (spinal cord-injured rats; 3 mg/kg p.o., after 5 hrs.): 66.8 ± 14.5% |
| CC(C)(C(=O)[O-])C(=O)Nc1cccc2c1C(=O)c1sccc1CS2(=O)=O.[Na+] [Compound 3] | 109.3 ± 5.7 | 66.2 ± 15.8 | 109.5 ± 8.2 | 65.3 ± 24.9 | 111.4 ± 5.6 | 52.3 ± 13.7 | micturition contractions (relative value, before administration = 100) ([1]; 10 mg/kg p.o., after 1 hr.): 96.8 ± 6.3%; pre-micturition contractions (relative value, before administration = 100) ([1]; 10 mg/kg p.o., after 1 hr.): 62.4 ± 7.1%; micturition contractions (relative value, before administration = 100) ([1]; 10 mg/kg p.o., after 3 hrs.): 95.7 ± 4.7%; pre-micturition contractions (relative value, before administration = 100) ([1]; 10 mg/kg p.o., after 3 hrs.): 49.1 ± 6.3%; micturition contractions (relative value, before administration = 100) ([1]; 10 mg/kg p.o., after 5 hrs.): 92.2 ± 4.6%; pre-micturition contractions (relative value, before administration = 100) ([1]; 10 mg/kg p.o., after 5 hrs.): 51.8 ± 3.5% |
| C[C@](O)(C(=O)Nc1cccc2c1C(=O)c1sccc1CO2)C(F)(F)F [Compound 4] | 95.5 ± 8.2 | 58.6 | 106.2 ± 7.0 | 44.4 | 121.4 ± 9.5 | 42.6 |  |
| CC(C)(C)C(=O)Nc1cccc2c1C(=O)c1sccc1CO2 [Compound 5] | 96.8 ± 4.4 | 86.2 ± 10.2 | 109.4 ± 6.4 | 57.3 ± 9.2 | 113.9 ± 15.4 | 44.8 ± 6.1 |  |
| CC(O)(C(=O)Nc1ccc(Cl)c2c1C(=O)c1sccc1CS2(=O)=O)C(F)(F)F (stereo not drawn) [Compound 6] | 96.8 ± 4.4 | 62.7 ± 9.3 | 109.4 ± 6.4 | 87.9 ± 16.9 | 113.9 ± 15.4 | 69.0 ± 11.8 |  |
